The target of assay [1] is T1, STING (Stimulator of Interferon Genes) (Mus musculus, UniProt Q3TBT3).
T1 sequence (Q3TBT3 139-378 limits assumed): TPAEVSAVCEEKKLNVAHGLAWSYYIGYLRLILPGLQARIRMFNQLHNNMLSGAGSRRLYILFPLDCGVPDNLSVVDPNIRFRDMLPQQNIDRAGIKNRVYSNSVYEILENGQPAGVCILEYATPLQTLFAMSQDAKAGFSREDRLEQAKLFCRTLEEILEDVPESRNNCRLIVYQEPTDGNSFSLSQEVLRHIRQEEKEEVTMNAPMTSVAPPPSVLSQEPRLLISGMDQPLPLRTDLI
The experiment in a line: native PAGE gel shift. The assay is classed as binding. The note with it: pH 7.5, 60 mM KCl, 5 mM Mg(OAc)2; labelled compound; 4-100 μM protein.

In assay [2] the target is Ec-CdnD02 (CD-NTase038) (Enterobacter hormaechei, UniProt P0DSP4). The note with it: with GTP; pH 9.4, 5 mM Mg(OAc)2, 37 °C; product cAAG.
Chain of Ec-CdnD02 (CD-NTase038) (P0DSP4 whole entry): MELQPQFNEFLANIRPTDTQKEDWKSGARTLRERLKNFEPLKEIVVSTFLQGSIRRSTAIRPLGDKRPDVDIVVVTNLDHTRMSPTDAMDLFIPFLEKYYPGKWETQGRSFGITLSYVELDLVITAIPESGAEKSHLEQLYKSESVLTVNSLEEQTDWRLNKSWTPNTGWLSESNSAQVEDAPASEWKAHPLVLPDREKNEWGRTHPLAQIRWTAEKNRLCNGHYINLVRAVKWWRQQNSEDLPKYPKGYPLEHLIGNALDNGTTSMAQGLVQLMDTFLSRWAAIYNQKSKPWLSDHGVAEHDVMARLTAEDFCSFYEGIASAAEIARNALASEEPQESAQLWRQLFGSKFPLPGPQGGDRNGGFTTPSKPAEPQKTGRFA
Assay [3] concerns the target T2, Rm-CdnE (Rhodothermus marinus, UniProt G2SLH8).
T2 sequence (G2SLH8 1-288): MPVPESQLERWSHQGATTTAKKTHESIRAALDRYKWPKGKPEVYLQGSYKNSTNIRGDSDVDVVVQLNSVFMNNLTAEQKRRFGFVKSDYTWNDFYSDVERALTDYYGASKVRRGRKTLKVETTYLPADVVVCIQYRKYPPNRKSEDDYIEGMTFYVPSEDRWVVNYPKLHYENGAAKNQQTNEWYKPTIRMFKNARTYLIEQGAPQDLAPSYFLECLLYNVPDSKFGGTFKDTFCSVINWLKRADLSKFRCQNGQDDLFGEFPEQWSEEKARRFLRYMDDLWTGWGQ
The assay is described as follows: X-ray crystal structure. In kind it is binding. The note with it: with Upnpp and MgCl2; nonhydrolyzable substrate analogue.

For assay [4], the target named is T3, Em-CdnE (Elizabethkingia meningoseptica, UniProt P0DSP2).
T3 sequence (P0DSP2 1-292): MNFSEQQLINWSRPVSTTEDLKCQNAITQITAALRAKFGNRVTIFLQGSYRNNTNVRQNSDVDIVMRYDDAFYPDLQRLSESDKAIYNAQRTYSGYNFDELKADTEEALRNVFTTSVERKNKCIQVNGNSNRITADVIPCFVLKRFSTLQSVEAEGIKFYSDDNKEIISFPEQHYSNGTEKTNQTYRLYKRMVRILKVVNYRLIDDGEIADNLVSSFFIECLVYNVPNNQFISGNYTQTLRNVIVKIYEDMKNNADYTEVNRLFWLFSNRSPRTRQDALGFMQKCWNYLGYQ
The experiment in a line: X-ray crystal structure. The assay is classed as binding.

As to `Nc1nc2c(ncn2[C@@H]2O[C@@H]3COP(=O)(O)O[C@H]4[C@@H](O)[C@H](n5cnc6c(=O)[nH]c(N)nc65)O[C@@H]4COP(=O)(O)O[C@H]3[C@H]2O)c(=O)[nH]1` [c-di-GMP], the “native PAGE gel shift” value in assay [1] is recorded as “STING bound to all four cyclic dipurine molecules with high affinity”.
With `Nc1ncnc2c1ncn2[C@@H]1O[C@H](COP(=O)(O)OP(=O)(O)OP(=O)(O)O)[C@@H](O)[C@H]1O` [ATP], the “radiolabelled NTP, silica TLC” value in assay [2] was “ATP and GTP were necessary and sufficient for product formation”.
In the case of `Nc1ncnc2c1ncn2[C@@H]1O[C@H](COP(=O)(O)CP(=O)(O)OP(=O)(O)O)[C@@H](O)[C@H]1O` [Apcpp], the X-ray crystal structure entry in assay [3] was “structure of Rm-CdnE in complex with nonhydrolyzable ATP and UTP”; in assay [4] (with GTP and Mg2+, nonhydrolyzable substrate analogue), “Crystal structure of Em-CdnE in complex with GTP and nonhydrolyzable ATP”.
As for `Nc1nc2c(ncn2[C@@H]2O[C@H](COP(=O)(O)OP(=O)(O)OP(=O)(O)O)[C@@H](O)[C@H]2O)c(=O)[nH]1` [GTP], in assay [4] (with Apcpp and Mg2+), the X-ray crystal structure entry is “Crystal structure of Em-CdnE in complex with GTP and nonhydrolyzable ATP”.
For `Nc1nc2c(ncn2[C@@H]2O[C@@H]3COP(=O)(O)O[C@H]4[C@@H](O)[C@H](n5cnc6c(N)ncnc65)O[C@@H]4COP(=O)(O)O[C@H]3[C@H]2O)c(=O)[nH]1` [3′3′ cGAMP], the “native PAGE gel shift” value in assay [1] is reported as “STING bound to all four cyclic dipurine molecules with high affinity”.

Values taken from publication PMC6544370 (Nature, 2019).
